Entries after “also recorded” stand apart in the source; their conditions may differ.
Test system: mBG17 binding to SARS-CoV-2 nucleocapsid protein
Experiment: Alanine-scan peptide competition ELISA with serial peptide dilution
Parameters: species or system mouse
Conditions: 4-fold serial dilution of peptide from 40 μg to ~2.5 ng; absorbance at 450 nm; n=3; percentage of binding from no-peptide control

Sequence	competition of mBG17 binding to nucleocapsid protein by alanine mutant peptides, compared with the WT peptide
ADFSKQLQQS [D1A]	no change in competition; also recorded: less disruptive to binding
DDASKQLQQS [F3A]	strong reductions in competition
DDFSKALQQS [Q6A]	minor reductions in competition; also recorded: less disruptive to binding
DDFSKQAQQS [L7A]	strong reductions in competition
DDFSKQLAQS [Q8A]	strong reductions in competition
DDFSKQLQQS [a.a. 401–410]	strong competition

Source: publication PMC13588620, “Linear antibody epitope prediction using AlphaFold2” (eLife, 2026)
